# Data as given in US7696233B2, “Method for controlling particular insect pests by applying anthranilamide compounds” (E. I. du Pont de Nemours and Company, priority 2001, dated 2010).
# Read-outs that look alike come from different tables or passages of the source.
# Key:
# [1] = tested on: tobacco budworm (Heliothis virescens); assay: Test I: soil systemic control of tobacco budworm, cotton; assay type: in vivo; conditions: 10 ppm, 10 mL to pots weekly for four weeks
# Procedure: For evaluating soil systemic control of tobacco budworm (Heliothis virescens), cotton plants were grown in sassafras soil in 15-cm pots in aluminum trays. When the plants reached square stage (bud formation on the plant) the plants were treated with the test compounds.
# Test compounds were formulated in 0.25 mL of acetone and then diluted with water to provide solutions of 10 ppm. Ten mL of the treatment solutions was added to the pots weekly for four weeks, with four replicates of each treatment rate. One day after the second, third and fourth treatments, 35-50 first instar Heliothis virescens larvae were brushed on each plant with paintbrushes and placed on the terminal area, squares, and bolls. Five days after the last infestation with larvae the plants were rated for damage.
# [2] = tested on: Heliothis virescens (tobacco budworm); assay type: in vivo; conditions: 10 mL of 300 ppm, 0 equals no feeding
# Procedure: Seventy-eight cotton plants were grown in the greenhouse with natural lighting in Sassafras soil in six inch pots. When six true leaves were on the plant (approximately 36 cm tall) the soil was drenched with a solution of Compound 497, 500, 530, 531 or 543. Each of the 5 compounds was dissolved in 2 mL of acetone, and distilled water was added to make 300 ppm solutions of each of the compounds. The pots were divided into six groups (13 plants/treatment), and 10 mL of each solution was applied over the soil surface of each group with one group left untreated. The plants were arranged in the greenhouse in a randomized block design. Each treatment was divided into three groups for sampling at 24, 48, and 96 hours.
# Leaves were taken from the base and terminal of the plants. The leaves from the third node and the terminal leaves greater than 15 cm^2 were sampled per plant. One clipped leaf from each plant was cut into four pieces and each piece was placed into an well with one second-instar larvae of Heliothis virescens (tobacco budworm). Larval mortality (% M) was recorded 96 hours after sampling. The percentage of leaf feeding (% FF) was also recorded. Consumption of the leaf in the well was reported as 0-100% (0 equals no feeding).
# [3] = tested on: southern fire ants (Solenopsis xyloni); assay: Test R: fire ant bait test; assay type: in vivo; conditions: fifty ants per cage
# Description: For evaluating control of fire ant (Solenopsis xyloni), Compound 531 was mixed with water and then mixed into a slurry with equal amounts (by weight) of Niban granular bait with no active ingredient (supplied by Nisus Corp.). The baits were uniformly sprinkled onto the sand substrate in each test cage. Fifty field-collected southern fire ants (Solenopsis xyloni) were then placed into each cage and provided water via a saturated cotton ball. The cages were held indoors with indirect sunlight and temperatures ranging from 22 to 31° C. Four test replicates were set up per rate. Evaluations were conducted at 1, 3, 7, 10, and 14 days after treatment (DAT) by counting and removing the killed ants found in each cage.
# [4] = tested on: German cockroaches (Blatella germanica); assay: Test Q: German cockroach bait test; assay type: in vivo; conditions: ten cockroaches per cage
# Procedure: For evaluating german cockroach (Blatella germanica), Compound 531 was mixed with water, and then blended into a slurry with equal amounts (by weight) of peanut butter. Approximately 1 gram of bait was placed into each test cage. Ten German cockroaches (Blatella germanica) were then placed into each cage, and provided water via a saturated cotton ball. The cages were held indoors, with indirect sunlight, and temperatures ranging from 22 to 31° C. Four test replicates were set up per rate. Evaluations were conducted 1, 2, 3, 5, and 7 days after treatment (DAT) by counting and removing the killed roaches found in each cage.
# [5] = tested on: thrips (Frankliniella sp.); assay: Test N: control of thrips, sprayed cotton or soybean plants; assay type: in vivo; conditions: sprayed at 10 ppm; four days after application
# Procedure: For evaluating control of thrips (Frankliniella sp.), samples of the test compounds were dissolved in 1 mL of acetone. This solution was then diluted to 100 mL total volume using an aqueous 500 ppm solution of Ortho X-77™ surfactant. Serial dilutions were made to obtain 50 mL of 10 ppm concentration.
# The diluted solutions of the test compounds were sprayed to run-off on three-week-old cotton or soybean plants infested with thrips. The plants were placed on a rotating turntable sprayer (10 rpm). Test solutions were applied using a flat fan air-assisted nozzle (Spraying Systems 122440) at 10 psi (69 kPa). Sprayed and dried plants were incased in a plastic cylinder. At four days after application the total number of dead thrips was recorded.
# [6] = tested on: Colorado potato beetle (Leptinotarsa decemlineata); assay: Test L: soil systemic control of Colorado potato beetle, tomato; assay type: in vivo; conditions: 5 ppm, 5 mL to soil; leaf excised after 4 days; mortality after four days
# Procedure: For evaluating soil systemic control of Colorado potato beetle (Leptinotarsa decemlineata), transplanted tomato plants were grown in 6-cm pots for 5 days until they were at the two true leaf stage.
# Test compounds were dissolved in 0.25 mL of acetone and diluted with water provide solutions of 5 ppm. Five mL of the appropriate test solution was applied by pipette to the surface of the soil in each pot, followed by 5 mL of water, with eight plants for each compound/rate. The pots were covered and held at 25° C. with 16 hours of light per day. The plants were watered the next day and each day following as needed. After 4 days, one leaf from each plant was excised and placed into a well of a test tray as described in Test H. One 5-day old Colorado potato beetle (Leptinotarsa decemlineata) was placed in each well, the tray was covered and then the test units were held at 25° C. with 16 hours of light per day. Mortality was observed after four days.
# [7] = base leaf sampled 24 h after drench
# [8] = base leaf sampled 48 h after drench
# [9] = base leaf sampled 96 h after drench
# [10] = terminal leaf sampled 24 h after drench
# [11] = terminal leaf sampled 48 h after drench
# [12] = terminal leaf sampled 96 h after drench
smiles,measurement,setting,value
CCn1nc(C(F)(F)F)cc1NC(=O)c1c(C)cccc1C(=O)NC(C)C,melting point,,200 to 204 °C
Cc1cc(Br)cc(C(=O)NC(C)C)c1NC(=O)c1cc(Br)nn1-c1ncccc1Cl [Compound 520],protection of squares and bolls,[1],excellent protection of squares and boils including no or minimal sepal damage
Cc1cc(Cl)cc(C(=O)NC(C)C)c1NC(=O)c1cc(Br)nn1-c1ncccc1Cl [Compound 530],% FF (percentage of leaf feeding),[2]; [7],80%
same,% FF (percentage of leaf feeding),[2]; [8],50%
same,% FF (percentage of leaf feeding),[2]; [9],5%
same,% FF (percentage of leaf feeding),[2]; [10],50%
same,% FF (percentage of leaf feeding),[2]; [11],20%
same,% FF (percentage of leaf feeding),[2]; [12],5%
CNC(=O)c1cc(Cl)cc(C)c1NC(=O)c1cc(Br)nn1-c1ncccc1Cl [Compound 531],% FF (percentage of leaf feeding),[2]; [7],60%
same,% FF (percentage of leaf feeding),[2]; [8],80%
same,% FF (percentage of leaf feeding),[2]; [9],10%
same,% FF (percentage of leaf feeding),[2]; [10],40%
same,% FF (percentage of leaf feeding),[2]; [11],40%
same,% FF (percentage of leaf feeding),[2]; [12],10%
same,Average of Killed Fire Ants,"[3]; granular bait 400 ppm, 1 DAT",0.5
same,Average of Killed Fire Ants,"[3]; granular bait 400 ppm, 3 DAT",1.3
same,Average of Killed Fire Ants,"[3]; granular bait 400 ppm, 7 DAT",40.5
same,Average of Killed Fire Ants,"[3]; granular bait 400 ppm, 10 DAT",50
same,Average of Killed Fire Ants,"[3]; granular bait 400 ppm, 14 DAT",50
same,Average of Killed Fire Ants,"[3]; granular bait 2,000 ppm, 1 DAT",1
same,Average of Killed Fire Ants,"[3]; granular bait 2,000 ppm, 3 DAT",2
same,Average of Killed Fire Ants,"[3]; granular bait 2,000 ppm, 7 DAT",43
same,Average of Killed Fire Ants,"[3]; granular bait 2,000 ppm, 10 DAT",49.8
same,Average of Killed Fire Ants,"[3]; granular bait 2,000 ppm, 14 DAT",50
same,Average of Killed Fire Ants,"[3]; granular bait 10,000 ppm, 1 DAT",0
same,Average of Killed Fire Ants,"[3]; granular bait 10,000 ppm, 3 DAT",2.3
same,Average of Killed Fire Ants,"[3]; granular bait 10,000 ppm, 7 DAT",42.8
same,Average of Killed Fire Ants,"[3]; granular bait 10,000 ppm, 10 DAT",50
same,Average of Killed Fire Ants,"[3]; granular bait 10,000 ppm, 14 DAT",50
same,Average of Killed Cockroaches,"[4]; peanut butter bait 400 ppm, 1 DAT",3.8
same,Average of Killed Cockroaches,"[4]; peanut butter bait 400 ppm, 2 DAT",5.8
same,Average of Killed Cockroaches,"[4]; peanut butter bait 400 ppm, 3 DAT",6.3
same,Average of Killed Cockroaches,"[4]; peanut butter bait 400 ppm, 5 DAT",7
same,Average of Killed Cockroaches,"[4]; peanut butter bait 400 ppm, 7 DAT",7
same,Average of Killed Cockroaches,"[4]; peanut butter bait 2000 ppm, 1 DAT",6.3
same,Average of Killed Cockroaches,"[4]; peanut butter bait 2000 ppm, 2 DAT",8
same,Average of Killed Cockroaches,"[4]; peanut butter bait 2000 ppm, 3 DAT",8.8
same,Average of Killed Cockroaches,"[4]; peanut butter bait 2000 ppm, 5 DAT",9
same,Average of Killed Cockroaches,"[4]; peanut butter bait 2000 ppm, 7 DAT",9
same,Average of Killed Cockroaches,"[4]; peanut butter bait 10000 ppm, 1 DAT",9.5
same,Average of Killed Cockroaches,"[4]; peanut butter bait 10000 ppm, 2 DAT",9.5
same,Average of Killed Cockroaches,"[4]; peanut butter bait 10000 ppm, 3 DAT",9.5
same,Average of Killed Cockroaches,"[4]; peanut butter bait 10000 ppm, 5 DAT",9.5
same,Average of Killed Cockroaches,"[4]; peanut butter bait 10000 ppm, 7 DAT",9.5
CNC(=O)c1cc(Cl)cc(C)c1NC(=O)c1cc(OCC(F)(F)F)nn1-c1ncccc1Cl,melting point,,215 to 217 °C
Cc1cccc(C(=O)NC(C)C)c1NC(=O)c1cc(Br)nn1-c1ncccc1Cl [Compound 283],protection of squares and bolls,[1],excellent protection of squares and boils including no or minimal sepal damage
Cc1cccc(C(=O)NC(C)C)c1NC(=O)c1cc(C(F)(F)F)nn1-c1ncccc1C(F)(F)F,melting point,,233 to 235 °C
CNC(=O)c1cc(Br)cc(C)c1NC(=O)c1cc(C(F)(F)F)nn1-c1ncccc1Cl [Compound 542],mortality,[5],at least 90%
CNC(=O)c1cc(Cl)cc(C)c1NC(=O)c1cc(C(F)(F)F)nn1-c1ncccc1Cl [Compound 500],% FF (percentage of leaf feeding),[2]; [7],80%
same,% FF (percentage of leaf feeding),[2]; [8],80%
same,% FF (percentage of leaf feeding),[2]; [9],30%
same,% FF (percentage of leaf feeding),[2]; [10],60%
same,% FF (percentage of leaf feeding),[2]; [11],60%
same,% FF (percentage of leaf feeding),[2]; [12],30%
Cc1cc(Cl)cc(C(=O)NC(C)C)c1NC(=O)c1cc(Cl)nn1-c1ncccc1Cl [Compound 543],% FF (percentage of leaf feeding),[2]; [7],30%
same,% FF (percentage of leaf feeding),[2]; [8],30%
same,% FF (percentage of leaf feeding),[2]; [9],5%
same,% FF (percentage of leaf feeding),[2]; [10],20%
same,% FF (percentage of leaf feeding),[2]; [11],20%
same,% FF (percentage of leaf feeding),[2]; [12],5%
Cc1cccc(C(=O)NC(C)C)c1NC(=O)c1cc(C(F)(F)F)nn1-c1ncccc1Cl [Compound 214],protection of squares and bolls,[1],excellent protection of squares and boils including no or minimal sepal damage
same,mortality and feeding inhibition,[6],excellent levels of mortality and feeding inhibition
Cc1cc(Cl)cc(C(=O)NC(C)C)c1NC(=O)c1cc(C(F)(F)F)nn1-c1ncccc1Cl [Compound 497],% FF (percentage of leaf feeding),[2]; [7],80%
same,% FF (percentage of leaf feeding),[2]; [8],100%
same,% FF (percentage of leaf feeding),[2]; [9],20%
same,% FF (percentage of leaf feeding),[2]; [10],50%
same,% FF (percentage of leaf feeding),[2]; [11],50%
same,% FF (percentage of leaf feeding),[2]; [12],10%
CNC(=O)c1cc(Cl)cc(C)c1NC(=O)c1cc(Cl)nn1-c1ncccc1Cl,melting point,,205 to 207 °C
